From the supplement of paper PMC9663587

Legend:
YKL-5-124 = compound: C=CC(=O)Nc1ccc(C(=O)Nc2[nH]nc3c2CN(C(=O)N[C@H](CN(C)C)c2ccccc2)C3(C)C)cc1 [YKL-5-124]; assay: increase in dead-cell fraction, 72 h; higher = more death;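 also: breast cancer cell lines in 384-well plates, stained with Hoechst plus LIVE/DEAD far red dye and imaged, cells above an LDR intensity threshold counted dead, Hoechst-negative corpses included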
BSJ-03-123 = compound: CC(=O)c1c(C)c2cnc(Nc3ccc(N4CCN(CCOCCOCCOCCNC(=O)COc5cccc6c5C(=O)N(C5CCC(=O)NC5=O)C6=O)CC4)cn3)nc2n(C2CCCC2)c1=O [BSJ-03-123]; assay: as above
[1] = compound: CC(=O)c1c(C)c2cnc(Nc3ccc(N4CCNCC4)cn3)nc2n(C2CCCC2)c1=O; assay: as above
[2] = compound: CCN1CCN(Cc2ccc(Nc3ncc(F)c(-c4cc(F)c5nc(C)n(C(C)C)c5c4)n3)nc2)CC1; assay: as above
Neratinib/HKI272 [3] = compound: T1, CCOc1cc2ncc(C#N)c(Nc3ccc(OCc4ccccn4)c(Cl)c3)c2cc1NC(=O)/C=C/CN(C)C [Neratinib/HKI272]; assay: as above
[4] = compound: CCc1cnn2c(NCc3ccc[n+]([O-])c3)cc(N3CCCC[C@H]3CCO)nc12; assay: as above
LEE011/Ribociclib = compound: CN(C)C(=O)c1cc2cnc(Nc3ccc(N4CCNCC4)cn3)nc2n1C1CCCC1 [LEE011/Ribociclib]; assay: as above
THZ531 = compound: CN(C)C/C=C/C(=O)Nc1ccc(C(=O)N2CCC[C@@H](Nc3ncc(Cl)c(-c4c[nH]c5ccccc45)n3)C2)cc1 [THZ531]; assay: as above
THZ1 [5] = compound: T2, CN(C)C/C=C/C(=O)Nc1ccc(C(=O)Nc2cccc(Nc3ncc(Cl)c(-c4c[nH]c5ccccc45)n3)c2)cc1 [THZ1]; assay: as above
Flavopiridol = compound: CN1CC[C@H](c2c(O)cc(O)c3c(=O)cc(-c4ccccc4Cl)oc23)[C@H](O)C1 [Flavopiridol]; assay: as above
Neratinib/HKI272 [6] = compound: T1, Neratinib/HKI272; assay: GR value, 72 h; higher = faster growth (1 = untreated, <0 = killing);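 also: breast cancer and non-malignant breast epithelial lines, nine half-log doses, viable cells counted by Hoechst and LIVE/DEAD dye imaging versus time-zero plates and DMSO controls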
THZ1 [7] = compound: T2, THZ1; assay: as above

## 184A1
YKL-5-124; 0.001 µM
  increase in dead-cell fraction: 0.02
YKL-5-124; 0.003162 µM
  increase in dead-cell fraction: 0.0379
YKL-5-124; 0.01 µM
  increase in dead-cell fraction: 0.119
YKL-5-124; 0.03162 µM
  increase in dead-cell fraction: 0.122
YKL-5-124; 0.1 µM
  increase in dead-cell fraction: 0.147
YKL-5-124; 0.3162 µM
  increase in dead-cell fraction: 0.0805
YKL-5-124; 1 µM
  increase in dead-cell fraction: 0.137
YKL-5-124; 3.162 µM
  increase in dead-cell fraction: 0.179
YKL-5-124; 10 µM
  increase in dead-cell fraction: 0.34
BSJ-03-123; 0.001 µM
  increase in dead-cell fraction: 0.0061
BSJ-03-123; 0.003162 µM
  increase in dead-cell fraction: 0.0101
BSJ-03-123; 0.01 µM
  increase in dead-cell fraction: 0.0181
BSJ-03-123; 0.03162 µM
  increase in dead-cell fraction: 0.0097
BSJ-03-123; 0.1 µM
  increase in dead-cell fraction: 0.0423
BSJ-03-123; 0.3162 µM
  increase in dead-cell fraction: 0.0318
BSJ-03-123; 1 µM
  increase in dead-cell fraction: 0.0505
BSJ-03-123; 3.162 µM
  increase in dead-cell fraction: 0.0581
BSJ-03-123; 10 µM
  increase in dead-cell fraction: 0.179
[1]; 0.0003162 µM
  increase in dead-cell fraction: -0.0004
[1]; 0.001 µM
  increase in dead-cell fraction: 0.0016
[1]; 0.003162 µM
  increase in dead-cell fraction: -0.0008
[1]; 0.01 µM
  increase in dead-cell fraction: 0.0001
[1]; 0.03162 µM
  increase in dead-cell fraction: 0.0086
[1]; 0.1 µM
  increase in dead-cell fraction: 0.0183
[1]; 0.3162 µM
  increase in dead-cell fraction: 0.0224
[1]; 1 µM
  increase in dead-cell fraction: 0.0414
[1]; 3.162 µM
  increase in dead-cell fraction: 0.0383
[2]; 0.001 µM
  increase in dead-cell fraction: 0.0016
[2]; 0.003162 µM
  increase in dead-cell fraction: 0.0047
[2]; 0.01 µM
  increase in dead-cell fraction: 0.0067
[2]; 0.03162 µM
  increase in dead-cell fraction: 0.0185
[2]; 0.1 µM
  increase in dead-cell fraction: 0.0336
[2]; 0.3162 µM
  increase in dead-cell fraction: 0.0578
[2]; 1 µM
  increase in dead-cell fraction: 0.056
[2]; 3.162 µM
  increase in dead-cell fraction: 0.0434
[2]; 10 µM
  increase in dead-cell fraction: 0.229
Neratinib/HKI272 [3]; 0.0003162 µM
  increase in dead-cell fraction: -0.004
Neratinib/HKI272 [3]; 0.001 µM
  increase in dead-cell fraction: -0.0007
Neratinib/HKI272 [3]; 0.003162 µM
  increase in dead-cell fraction: -0.0029
Neratinib/HKI272 [3]; 0.01 µM
  increase in dead-cell fraction: 0.001
Neratinib/HKI272 [3]; 0.03162 µM
  increase in dead-cell fraction: 0.0214
Neratinib/HKI272 [3]; 0.1 µM
  increase in dead-cell fraction: 0.0256
Neratinib/HKI272 [3]; 0.3162 µM
  increase in dead-cell fraction: 0.0311
Neratinib/HKI272 [3]; 1 µM
  increase in dead-cell fraction: 0.028
Neratinib/HKI272 [3]; 3.162 µM
  increase in dead-cell fraction: 0.0419
[4]; 0.0001 µM
  increase in dead-cell fraction: -0.0039
[4]; 0.0003162 µM
  increase in dead-cell fraction: -0.0006
[4]; 0.001 µM
  increase in dead-cell fraction: -0.0027
[4]; 0.003162 µM
  increase in dead-cell fraction: -0.0019
[4]; 0.01 µM
  increase in dead-cell fraction: 0.0164
[4]; 0.03162 µM
  increase in dead-cell fraction: 0.277
[4]; 0.1 µM
  increase in dead-cell fraction: 0.127
[4]; 0.3162 µM
  increase in dead-cell fraction: 0.363
[4]; 1 µM
  increase in dead-cell fraction: 0.368
LEE011/Ribociclib; 0.001 µM
  increase in dead-cell fraction: 0.0076
LEE011/Ribociclib; 0.003162 µM
  increase in dead-cell fraction: 0.0015
LEE011/Ribociclib; 0.01 µM
  increase in dead-cell fraction: 0.0139
LEE011/Ribociclib; 0.03162 µM
  increase in dead-cell fraction: 0.0172
LEE011/Ribociclib; 0.1 µM
  increase in dead-cell fraction: 0.0129
LEE011/Ribociclib; 0.3162 µM
  increase in dead-cell fraction: 0.0139
LEE011/Ribociclib; 1 µM
  increase in dead-cell fraction: 0.0153
LEE011/Ribociclib; 3.162 µM
  increase in dead-cell fraction: 0.015
LEE011/Ribociclib; 10 µM
  increase in dead-cell fraction: 0.041
THZ531; 0.0001 µM
  increase in dead-cell fraction: 0.0016
THZ531; 0.0003162 µM
  increase in dead-cell fraction: 0.0042
THZ531; 0.001 µM
  increase in dead-cell fraction: 0.0042
THZ531; 0.003162 µM
  increase in dead-cell fraction: 0.0053
THZ531; 0.01 µM
  increase in dead-cell fraction: -0.004
THZ531; 0.03162 µM
  increase in dead-cell fraction: 0.0024
THZ531; 0.1 µM
  increase in dead-cell fraction: 0.0107
THZ531; 0.3162 µM
  increase in dead-cell fraction: 0.0204
THZ531; 1 µM
  increase in dead-cell fraction: 0.447
THZ1 [5]; 0.0001 µM
  increase in dead-cell fraction: -0.0006
THZ1 [5]; 0.0003162 µM
  increase in dead-cell fraction: 0.0038
THZ1 [5]; 0.001 µM
  increase in dead-cell fraction: 0.0021
THZ1 [5]; 0.003162 µM
  increase in dead-cell fraction: 0.0076
THZ1 [5]; 0.01 µM
  increase in dead-cell fraction: 0.0448
THZ1 [5]; 0.03162 µM
  increase in dead-cell fraction: 0.169
THZ1 [5]; 0.1 µM
  increase in dead-cell fraction: 0.175
THZ1 [5]; 0.3162 µM
  increase in dead-cell fraction: 0.152
Flavopiridol; 0.0001 µM
  increase in dead-cell fraction: -0.0061
Flavopiridol; 0.0003162 µM
  increase in dead-cell fraction: 0.0046
Flavopiridol; 0.001 µM
  increase in dead-cell fraction: -0.0038
Flavopiridol; 0.003162 µM
  increase in dead-cell fraction: -0.0001
Flavopiridol; 0.01 µM
  increase in dead-cell fraction: 0.0054
Flavopiridol; 0.03162 µM
  increase in dead-cell fraction: 0.0223
Flavopiridol; 0.1 µM
  increase in dead-cell fraction: 0.0902
Flavopiridol; 0.3162 µM
  increase in dead-cell fraction: 0.231
Flavopiridol; 1 µM
  increase in dead-cell fraction: 0.0866
Neratinib/HKI272 [6]; 0.0003162 µM
  GR value: 0.998 GR
Neratinib/HKI272 [6]; 0.001 µM
  GR value: 1 GR
Neratinib/HKI272 [6]; 0.003162 µM
  GR value: 1.02 GR
Neratinib/HKI272 [6]; 0.01 µM
  GR value: 0.853 GR
Neratinib/HKI272 [6]; 0.03162 µM
  GR value: 0.468 GR
Neratinib/HKI272 [6]; 0.1 µM
  GR value: 0.287 GR
Neratinib/HKI272 [6]; 0.3162 µM
  GR value: 0.219 GR
Neratinib/HKI272 [6]; 1 µM
  GR value: 0.198 GR
Neratinib/HKI272 [6]; 3.162 µM
  GR value: 0.166 GR
THZ1 [7]; 0.0001 µM
  GR value: 1.02 GR
THZ1 [7]; 0.0003162 µM
  GR value: 1 GR
THZ1 [7]; 0.001 µM
  GR value: 1.01 GR
THZ1 [7]; 0.003162 µM
  GR value: 0.822 GR
THZ1 [7]; 0.01 µM
  GR value: 0.39 GR
THZ1 [7]; 0.03162 µM
  GR value: -0.094 GR
THZ1 [7]; 0.1 µM
  GR value: -0.2 GR
THZ1 [7]; 0.3162 µM
  GR value: -0.209 GR
